# Source: patent US20050261332A1, “Sulfonamides and uses thereof” (priority 2004, published 2005)
# Target: T1, GHS-R (Homo sapiens, UniProt Q92847)
# T1 construct: expressed in transfected cells; host or cells: COS-7 cells
# Experiment: GHS-R competition binding assay (Ki of GHS-R antagonizing compounds)
# Description: One exemplary binding assay is as follows: GHS-R expressing COS-7 cells cultured at a density of 1×10^5 cells per well so that binding is assayed in the range of about 5-8 % binding of the radioactive ligand. For example, the cells can express an endogenous nucleic acid encoding GHS-R or an exogenous nucleic acid encoding GHS-R. Cells transfected with an exogenous nucleic acid encoding GHS-R can be used, e.g., two days, after transfection. Competition binding experiments are performed for 3 hours at 4° C. using 25 pM of ^125I-ghrelin in 0.5 ml of 50 mM HEPES buffer, pH 7.4, supplemented with 1 mM CaCl2, 5 mM MgCl2, and 0.1% (w/v) bovine serum albumin, 40 mg/ml bacitracin. Non-specific binding can be determined as the binding in the presence of […] of unlabeled ghrelin. Cells are washed twice in 0.5 ml of ice-cold buffer and then lysed with 0.5-1 ml of lysis buffer (8 M Urea, 2% NP40 in 3 M acetic acid). After washing and lysis, the bound radioactivity is counted. Assays can be run in duplicate or triplicate, e.g., to provide statistical power.
# Values of the dissociation and inhibition constants (Kd and Ki) can be estimated from competition binding experiments using the equation: Kd=IC50-L and Ki=IC50/(1+L/Kd), where L is the concentration of radioactive ligand. Bmax values can be estimated from competition binding experiments using the equation Bmax=B0 IC50/[ligand], where B0 is the specifically bound radioligand.
# T1 sequence (Q92847 whole entry, species assumed): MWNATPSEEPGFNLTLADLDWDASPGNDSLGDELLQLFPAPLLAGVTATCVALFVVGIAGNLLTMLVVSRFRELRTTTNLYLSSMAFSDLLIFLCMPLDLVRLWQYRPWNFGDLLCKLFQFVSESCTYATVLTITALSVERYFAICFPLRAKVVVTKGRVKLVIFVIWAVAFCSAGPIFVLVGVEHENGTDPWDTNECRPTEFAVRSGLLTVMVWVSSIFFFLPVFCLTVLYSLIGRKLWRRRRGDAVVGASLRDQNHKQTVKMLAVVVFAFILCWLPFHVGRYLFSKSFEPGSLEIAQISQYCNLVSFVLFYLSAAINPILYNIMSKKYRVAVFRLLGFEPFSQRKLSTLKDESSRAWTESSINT
row,Ki [nM],SMILES
1,100 to 1000,"CC(C)N(C)CCS(=O)(=O)N[C@H](COCc1ccccc1)C(=O)N1CCC2(CC1)CN(S(C)(=O)=O)c1ccccc12 [Compound 131, (R)-N-(3-(benzyloxy)-1-(1-(methylsulfonyl)spiro[indoline-3,4′-piperidine]-1′-yl)-1-oxopropan-2-yl)-2-(isopropyl(methyl)amino)ethanesulfonamide]"
2,< 100,"CCN(CC)CCCS(=O)(=O)N[C@@H](CCc1ccccc1)C(=O)N1CCC2(CC1)CN(S(C)(=O)=O)c1ccccc12 [Compound 211, (S)-3-(diethylamino)-N-(1-(1-(methylsulfonyl)spiro[indoline-3,4′-piperidine]-1′-yl)-1-oxo-4-phenylbutan-2-yl)propane-1-sulfonamide]"
3,100 to 1000,"CC(C)(C)NCCS(=O)(=O)N[C@H](COCc1ccccc1)C(=O)N1CCC2(CC1)CN(S(C)(=O)=O)c1ccccc12 [Compound 139, (R)-N-(3-(benzyloxy)-1-(1-(methylsulfonyl)spiro[indoline-3,4′-piperidine]-1′-yl)-1-oxopropan-2-yl)-2-(tert-butylamino)ethanesulfonamide]"
4,100 to 1000,"CCN(CC)CCCS(=O)(=O)N[C@H](COCc1ccccc1)C(=O)NCc1ccc(-c2ccccc2CN)cc1 [Compound 213, (R)-N-(2′-Aminomethyl-biphenyl-4-ylmethyl)-3-benzyloxy-2-(3-diethylamino-propane-1-sulfonylamino)-propionamide]"
5,> 1000,"CCN(CC)CCCS(=O)(=O)N[C@H](COCc1ccccc1)C(=O)c1ccc(-c2ccccc2NC(=O)OC(C)(C)C)cc1 [Compound 166, (R)-{4′-[3-Benzyloxy-2-(3-diethylamino-propane-1-sulfonylamino)-propionyl]-biphenyl-2-yl}-carbamic acid tert-butyl ester]"
6,> 1000,"CS(=O)(=O)N1CC2(CCN(C(=O)[C@@H](COCc3ccccc3)NS(=O)(=O)CCN3CCOCC3)CC2)c2ccccc21 [Compound 138, (R)-N-(3-(benzyloxy)-1-(1-(methylsulfonyl)spiro[indoline-3,4′-piperidine]-1′-yl)-1-oxopropan-2-yl)-2-morpholinoethanesulfonamide]"
7,> 1000,"CC(C)NCCS(=O)(=O)N[C@H](COCc1ccccc1)C(=O)N1CCC2(CC1)CN(S(C)(=O)=O)c1ccccc12 [Compound 140, (R)-N-(3-(benzyloxy)-1-(1-(methylsulfonyl)spiro[indoline-3,4′-piperidine]-1′-yl)-1-oxopropan-2-yl)-2-(isopropylamino)ethanesulfonamide]"
8,100 to 1000,"CS(=O)(=O)N1CC2(CCN(C(=O)[C@@H](COCc3ccccc3)NS(=O)(=O)CCN3CCCCC3)CC2)c2ccccc21 [Compound 135, (R)-N-(3-(benzyloxy)-1-(1-(methylsulfonyl)spiro[indoline-3,4′-piperidine]-1′-yl)-1-oxopropan-2-yl)-2-(piperidin-1-yl)ethanesulfonamide]"
9,100 to 1000,"CCN(CC)CCCS(=O)(=O)N[C@H](COCc1ccccc1)C(=O)NCc1ccc(-c2ccccc2C(N)=O)cc1 [Compound 154, (R)-4′-{[3-Benzyloxy-2-(3-diethylamino-propane-1-sulfonylamino)-propionylamino]-methyl}-biphenyl-2-carboxylic acid amide]"
10,> 1000,"CS(=O)(=O)N1CC2(CCN(C(=O)[C@@H](COCc3ccccc3)NS(=O)(=O)CCCNC3CC3)CC2)c2ccccc21 [Compound 150, (R)-N-(3-(benzyloxy)-1-(1-(methylsulfonyl)spiro[indoline-3,4′-piperidine]-1′-yl)-1-oxopropan-2-yl)-3-(cyclopropylamino)propane-1-sulfonamide]"
11,100 to 1000,"CCN(CC)CCCS(=O)(=O)N[C@@H](COCc1ccccc1)C(=O)N1CCC2(CC1)CN(S(C)(=O)=O)c1ccccc12 [Compound 210, (S)-N-(3-(benzyloxy)-1-(1-(methylsulfonyl)spiro[indoline-3,4′-piperidine]-1′-yl)-1-oxopropan-2-yl)-3-(diethylamino)propane-1-sulfonamide]"
12,> 1000,"CS(=O)(=O)N1CC2(CCN(C(=O)[C@@H](COCc3ccccc3)NS(=O)(=O)CCN3CCC3)CC2)c2ccccc21 [Compound 134, (R)-2-(azetidin-1-yl)-N-(3-(benzyloxy)-1-(1-(methylsulfonyl)spiro[indoline-3,4′-piperidine]-1′-yl)-1-oxopropan-2-yl)ethanesulfonamide]"
13,< 100,"CCN(CC)CCCS(=O)(=O)N[C@H](CCc1ccccc1)C(=O)N1CCC2(CC1)CN(S(C)(=O)=O)c1ccccc12 [Compound 163, (R)-3-(diethylamino)-N-(1-(1-(methylsulfonyl)spiro[indoline-3,4′-piperidine]-1′-yl)-1-oxo-4-phenylbutan-2-yl)propane-1-sulfonamide]"
14,100 to 1000,"CCN(CC)CCCS(=O)(=O)N[C@H](COCc1ccccc1)C(=O)N1CCC2(CC1)CN(S(C)(=O)=O)c1ccccc12 [Compound 148, (R)-N-(3-(benzyloxy)-1-(1-(methylsulfonyl)spiro[indoline-3,4′-piperidine]-1′-yl)-1-oxopropan-2-yl)-3-(diethylamino)propane-1-sulfonamide]"

# The remaining lines, values behind:
row,SMILES,Ki [nM]
1,"CCN(CC)CCCS(=O)(=O)N[C@H](CCc1ccccc1)C(=O)c1ccc(-c2ccccc2NC(=O)OC(C)(C)C)cc1 [Compound 167, (R)-tert-butyl 4′-(2-(3-(diethylamino)propylsulfonamido)-4-phenylbutanoyl)biphenyl-2-ylcarbamate]",100 to 1000
2,"CCN(CC)CCS(=O)(=O)N[C@H](CCc1ccccc1)C(=O)c1ccc(-c2ccccc2CNC(=O)NCCO)cc1 [Compound 201, (R)-2-(diethylamino)-N-(1-(2′-((3-(2-hydroxyethyl)ureido)methyl)biphenyl-4-yl)-1-oxo-4-phenylbutan-2-yl)ethanesulfonamide]",< 100
3,"CCN(CC)CCCS(=O)(=O)N[C@H](CCc1ccccc1)C(=O)c1ccc(-c2ccccc2C(=O)O)cc1 [Compound 183, (R)-4′-(2-(3-(diethylamino)propylsulfonamido)-4-phenylbutanoyl)biphenyl-2-carboxylic acid]",100 to 1000
4,"CS(=O)(=O)N1CC2(CCN(C(=O)[C@@H](COCc3ccccc3)NS(=O)(=O)CCN3C4CCCC3CC4)CC2)c2ccccc21 [Compound 144, N-((R)-3-(benzyloxy)-1-(1-(methylsulfonyl)spiro[indoline-3,4′-piperidine]-1′-yl)-1-oxopropan-2-yl)-2-(8-azabicyclo[3.2.1]octan-8-yl)ethanesulfonamide]",100 to 1000
5,"CCN(CC)CCCS(=O)(=O)N[C@H](CCc1ccccc1)C(=O)NCc1ccc(-c2ccccc2CN)cc1 [Compound 180, (R)-N-((2′-(aminomethyl)biphenyl-4-yl)methyl)-2-(3-(diethylamino)propylsulfonamido)-4-phenylbutanamide]",100 to 1000
6,"CCN(CC)CCCS(=O)(=O)N[C@H](CCc1ccccc1)C(=O)NCc1ccc(-c2ccccc2CCNC(=O)NC)cc1 [Compound 206, (R)-2-(3-(diethylamino)propylsulfonamido)-N-((2′-(2-(3-methylureido)ethyl)biphenyl-4-yl)methyl)-4-phenylbutanamide]",< 100
7,"CCN(CC)CCCS(=O)(=O)N[C@H](COCc1ccccc1)C(=O)NCc1ccc(-c2ccccc2CCNC(=O)NC)cc1 [Compound 217, (R)-3-Benzyloxy-2-(3-diethylamino-propane-1-sulfonylamino)-N-{2′-[2-(3-methyl-ureido)-ethyl]-biphenyl-4-ylmethyl}-propionamide]",100 to 1000
8,"CCN(CC)CCCS(=O)(=O)N[C@H](CCc1ccccc1)C(=O)NCc1ccc(-c2ccccc2C(=O)NC)cc1 [Compound 179, (R)-4′-{[2-(3-Diethylamino-propane-1-sulfonylamino)-4-phenyl-butyrylamino]-methyl}-biphenyl-2-carboxylic acid methylamide]",100 to 1000
9,"CCNC(=O)NCc1ccccc1-c1ccc(C(=O)[C@@H](CCc2ccccc2)NS(=O)(=O)CCCN(CC)CC)cc1 [Compound 197, (R)-3-(diethylamino)-N-(1-(2′-((3-ethylureido)methyl)biphenyl-4-yl)-1-oxo-4-phenylbutan-2-yl)propane-1-sulfonamide]",< 100
10,"CCNC(=O)NCc1ccccc1-c1ccc(CNC(=O)[C@@H](CCc2ccccc2)NS(=O)(=O)CCCN(CC)CC)cc1 [Compound 193, (R)-2-(3-(diethylamino)propylsulfonamido)-N-((2′-((3-ethylureido)methyl)biphenyl-4-yl)methyl)-4-phenylbutanamide]",< 100
11,"CCN(CC)CCCS(=O)(=O)N[C@H](CCc1ccccc1)C(=O)c1ccc(-c2ccccc2CNC(=O)NCCO)cc1 [Compound 198, (R)-3-(diethylamino)-N-(1-(2′-((3-(2-hydroxyethyl)ureido)methyl)biphenyl-4-yl)-1-oxo-4-phenylbutan-2-yl)propane-1-sulfonamide]",< 100
12,"C=C(C)C(=O)OCCNC(=O)NCc1ccccc1-c1ccc(C(=O)[C@@H](CCc2ccccc2)NS(=O)(=O)CCCN(CC)CC)cc1 [Compound 195, (R)-2-(3-((4′-(2-(3-(diethylamino)propylsulfonamido)-4-phenylbutanoyl)biphenyl-2-yl)methyl)ureido)ethyl methacrylate]",< 100
